From the Kinase Knowledgebase extract (Sharma et al. 2016)

Legend:
MAPK14 (human) [1] = biological target: MAPK14 (human) (UniProt Q16539); assay: Inhibition of IL-1 Production in Whole Blood
MAPK14 (human) [2] = biological target: MAPK14 (human) (UniProt Q16539); assay: Inhibition of IL-6 Production in Whole Blood
MAPK14 (human) [3] = biological target: MAPK14 (human) (UniProt Q16539); assay: Inhibition of TNF Production in Whole Blood
MAPK14 (human) [4] = biological target: MAPK14 (human) (UniProt Q16539); assay: Inhibition of IL-1 Production in LPS-Stimulated PBMCs; settings: pbmc
MAPK14 (human) [5] = biological target: MAPK14 (human) (UniProt Q16539); assay: Inhibition of TNF-alpha Production in LPS-Stimulated PBMCs; settings: pbmc
MAPK14 (human) [6] = biological target: MAPK14 (human) (UniProt Q16539); assay: Inhibition of MAPK14 Kinase Activity

Sequence of MAPK14 (human) (Q16539 whole entry, looked up): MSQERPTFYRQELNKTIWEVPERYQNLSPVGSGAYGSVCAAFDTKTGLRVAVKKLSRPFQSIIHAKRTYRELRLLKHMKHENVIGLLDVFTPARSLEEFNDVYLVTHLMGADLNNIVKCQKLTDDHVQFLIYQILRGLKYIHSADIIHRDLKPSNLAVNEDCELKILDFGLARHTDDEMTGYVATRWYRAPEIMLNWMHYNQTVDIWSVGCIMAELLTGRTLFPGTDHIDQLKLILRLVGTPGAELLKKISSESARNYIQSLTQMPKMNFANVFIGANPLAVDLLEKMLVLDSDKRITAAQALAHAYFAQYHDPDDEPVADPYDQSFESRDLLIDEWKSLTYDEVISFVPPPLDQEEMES

Compound	IC50 (MAPK14 (human) [1])	IC50 (MAPK14 (human) [2])	IC50 (MAPK14 (human) [3])	IC50 (MAPK14 (human) [4])	IC50 (MAPK14 (human) [5])	IC50 (MAPK14 (human) [6])	Ki (MAPK14 (human) [6])
Cc1cc(F)ccc1-c1cccc(N(C(N)=O)c2cc3c(cc2Cl)OCO3)n1	> 500 nM	> 500 nM	> 500 nM	–	–	–	–
NC(=O)N(c1cccc(-c2ccccc2)n1)c1c(Cl)cccc1Cl	> 500 nM	> 500 nM	> 500 nM	–	–	–	–
O=c1ncn2nc(Sc3ccccc3)ccc2c1-c1ccc(Cl)c(Cl)c1	–	–	–	> 500 nM	> 500 nM	–	–
Cc1ccc(SC2=NN3CNC(=O)C(c4c(Cl)cccc4Cl)=C3C=C2)c(C)c1	> 500 nM	> 500 nM	> 500 nM	–	–	–	–
NC(=O)C(c1cccc(-c2ccccc2CNCCO)n1)c1c(Cl)cccc1Cl (stereo not given)	–	–	–	> 500 nM	> 500 nM	–	–
O=c1ncn2nc(Sc3ccccc3)ccc2c1-c1c(F)cccc1F	–	–	–	> 500 nM	> 500 nM	–	–
CC(=O)Nc1ccc(C2=C3C=CC(Sc4ccc(F)cc4)=NN3CNC2=O)c(Cl)c1	> 500 nM	> 500 nM	> 500 nM	–	–	–	–
O=C(CN1CCOCC1)Nc1ccc(C2=C3C=CC(Sc4ccc(F)cc4)=NN3CNC2=O)c(Cl)c1	> 500 nM	250 to 500 nM	> 500 nM	–	–	–	–
CN(C)C=Nc1ccc(-c2c(=O)ncn3nc(Sc4cc(F)ccc4Cl)ccc23)c(Cl)c1	–	–	–	100 to 500 nM	> 500 nM	100 to 1000 nM	–
NC(=O)C(c1ccc(C(=O)c2ccccc2)cn1)c1c(Cl)cccc1Cl (stereo not given)	–	–	–	> 500 nM	–	–	–
O=c1ncn2nc(Sc3ccccc3)ccc2c1-c1ccccc1	–	–	–	–	–	–	> 20000 nM
COc1ccc(C2=C3C=CC(Sc4ccc(F)cc4)=NN3CNC2=O)c(Cl)c1	> 500 nM	> 500 nM	> 500 nM	–	> 500 nM	–	–
COc1cc(Cl)c(C2=C3C=CC(Sc4ccc(F)cc4)=NN3CNC2=O)cc1OC	–	–	–	–	> 500 nM	–	–
Cc1ccccc1SC1=NN2CNC(=O)C(c3c(Cl)cccc3Cl)=C2C=C1	> 500 nM	250 to 500 nM	–	–	–	–	–
Nc1ccccc1SC1=NN2CNC(=O)C(c3c(Cl)cccc3Cl)=C2C=C1	> 500 nM	> 500 nM	> 500 nM	–	–	–	–
NC(=O)N(c1cccc(-c2ccc(F)cc2)n1)c1c(F)cccc1F	> 500 nM	> 500 nM	> 500 nM	–	–	–	–
COc1ccc(-c2cccc(C(C(N)=O)c3c(Cl)cccc3Cl)n2)cc1 (stereo not given)	–	–	–	> 500 nM	–	–	–
NC(=O)C(c1cccc(-c2ccccc2CN2CCCC2)n1)c1c(Cl)cccc1Cl (stereo not given)	–	–	–	100 to 500 nM	> 500 nM	–	–
Nc1ccc(C2=C3C=CC(Sc4ccc(F)cc4)=NN3CNC2=O)c(Cl)c1	> 500 nM	250 to 500 nM	> 500 nM	–	–	–	–
O=C1NCN2N=C(Sc3ccc(F)cc3Cl)C=CC2=C1c1c(Cl)cccc1Cl	250 to 500 nM	< 250 nM	250 to 500 nM	–	–	–	–

Compound	IC50 (MAPK14 (human) [1])	IC50 (MAPK14 (human) [2])	IC50 (MAPK14 (human) [3])	IC50 (MAPK14 (human) [4])	IC50 (MAPK14 (human) [5])	IC50 (MAPK14 (human) [6])	Ki (MAPK14 (human) [6])
O=C1NCN2N=C(Sc3ccc(F)cc3)C=CC2=C1c1cc2c(cc1Cl)OCO2	250 to 500 nM	250 to 500 nM	> 500 nM	–	–	–	–
O=c1ncn2nc(Sc3ccc(F)cc3Cl)ccc2c1-c1c(Cl)cccc1Cl	250 to 500 nM	250 to 500 nM	250 to 500 nM	–	–	–	–
O=c1ncn2nc(Sc3ccccc3)ccc2c1-c1ccccc1Cl	–	–	–	> 500 nM	> 500 nM	–	–
Cc1ccccc1-c1cccc(N(C(N)=O)c2c(Cl)cccc2Cl)n1	> 500 nM	> 500 nM	> 500 nM	–	–	–	–
Cc1ccccc1-c1cccc(C(C(N)=O)c2c(Cl)cccc2Cl)n1 (stereo not given)	> 500 nM	> 500 nM	> 500 nM	–	> 500 nM	–	–
O=C1NCN2N=C(Sc3ccccc3CO)C=CC2=C1c1c(Cl)cccc1Cl	250 to 500 nM	< 250 nM	< 250 nM	–	–	–	–
NC(=O)C(c1ccc(C(O)c2ccccc2)cn1)c1c(Cl)cccc1Cl (stereo not given)	–	–	–	100 to 500 nM	–	–	–
Cc1cc(Cl)ccc1SC1=NN2CNC(=O)C(c3c(Cl)cccc3Cl)=C2C=C1	> 500 nM	250 to 500 nM	250 to 500 nM	–	–	–	–
O=C1NCN2N=C(Sc3ccccc3Br)C=CC2=C1c1c(Cl)cccc1Cl	> 500 nM	250 to 500 nM	> 500 nM	–	–	–	–
NC(=O)C(c1cccc(-c2cccc3ccccc23)n1)c1c(Cl)cccc1Cl (stereo not given)	> 500 nM	> 500 nM	> 500 nM	–	–	–	–
Cc1c(Sc2ccccc2)nn2cnc(=O)c(-c3c(Cl)cccc3Cl)c2c1C	–	–	–	> 500 nM	> 500 nM	–	–
Cc1ccccc1-c1c(=O)ncn2nc(Sc3ccccc3)ccc12	–	–	–	> 500 nM	> 500 nM	–	–
Cc1cc(F)ccc1-c1cccc(N(C(N)=O)c2c(Cl)cccc2Cl)n1	> 500 nM	250 to 500 nM	> 500 nM	–	–	–	–
Cc1ccc(Sc2ccc3c(-c4c(Cl)cccc4Cl)c(=O)ncn3n2)cc1C	–	–	–	> 500 nM	> 500 nM	–	–
O=c1ncn2nc(Sc3ccccn3)ccc2c1-c1c(Cl)cccc1Cl	> 500 nM	–	–	–	> 500 nM	–	–
Cc1cc(F)ccc1-c1cccc(N(C(N)=O)c2c(F)cccc2F)n1	250 to 500 nM	250 to 500 nM	250 to 500 nM	–	–	–	–
Cc1cc(F)ccc1-c1cccc(C(C(N)=O)c2c(Cl)cccc2Cl)n1 (stereo not given)	> 500 nM	> 500 nM	> 500 nM	–	–	–	–
Cc1ccccc1-c1cccc(N(C(N)=O)c2c(F)cccc2F)n1	> 500 nM	250 to 500 nM	> 500 nM	–	–	–	–
Nc1cc(C(F)(F)F)ccc1SC1=NN2CNC(=O)C(c3c(Cl)cccc3Cl)=C2C=C1	–	–	–	100 to 500 nM	> 500 nM	–	–
NC(=O)Nc1cc(F)ccc1SC1=NN2CNC(=O)C(c3c(Cl)cccc3Cl)=C2C=C1	–	–	–	> 500 nM	> 500 nM	–	–
